Test results taken from PMC9457600, “Synthesis, Leishmanicidal, Trypanocidal, Antiproliferative Assay and Apoptotic Induction of (2-Phenoxypyridin-3-yl)naphthalene-1(2H)-one Derivatives” (Molecules, 2022).

How the values were obtained:
MRC-5 = assay: MTS assay on non-malignant MRC-5; assay type: cell-based; conditions: MRC5; noncancerous human cell line
[1] = system: epimastigotes of Trypanosoma cruzi strain MHOM/VE/92/YBM; assay: MTT viability of T. cruzi epimastigotes; assay type: cell-based
K562-TAX = assay: MTS antiproliferative assay K562-TAX; assay type: cell-based, human; conditions: 72 h of incubation, paclitaxel-resistant
CCRF-CEM = assay: MTS antiproliferative assay CCRF-CEM; assay type: cell-based; conditions: Homo sapiens, 72 h of incubation
CEM-DNR = assay: MTS antiproliferative assay CEM-DNR; assay type: cell-based; conditions: Homo sapiens, 72 h of incubation, daunorubicin-resistant
U2OS = assay: MTS antiproliferative assay U2OS; assay type: cell-based; conditions: Homo sapiens, 72 h of incubation
A549 = assay: MTS antiproliferative assay A549; assay type: cell-based, human; conditions: 72 h of incubation
HCT116p53−/− = assay: MTS antiproliferative assay HCT116p53-/-; assay type: cell-based; conditions: Homo sapiens; 72 h of incubation
A549 cell line = assay: Annexin V-FITC/PI flow cytometry apoptosis assay A549; assay type: cell-based, human; conditions: 24 h
Procedure: (§1) Cell death was assessed after 24 h incubation with compounds 18 and 22. Apoptosis was analyzed by flow cytometry using annexin V-FITC and propidium iodide (PI). Early apoptosis was defined by annexin V-FITC expression and, necrosis by PI expression, late apoptosis by coexpression of annexin V/PI. Doxorubicin and quercetin were used as positive controls. The results of a typical flow cytometry analysis of both compounds are illustrated in Figure 2 and Figure 3. An increase in early apoptosis and late apoptosis was observed; necrosis was less predominant. The results are summarized in Tables S1 and S2 (Supplementary Materials). The expression of annexin V was different depending on the compound used. K562, A549 cell lines were treated as described by the manufacturer (Santa Cruz Biotechnology), washed, and resuspended in annexin V binding buffer (0.01 M HEPES, 0.14 M NaCl, and 2.5 mM CaCl2) with the subsequent incubation of annexinV-FITC and then PI. An Epics XL cytometer (Beckman Coulter, Indianapolis, IN, USA) was used for the analysis. Untreated cells were the negative controls, and doxorubicin (Dox) (1 μM), and quercetin (QC) (50 μM) were the positive controls. Early apoptosis refers to annexin V expression, late apoptosis, the coexpression of annexin V and PI, and necrosis the sole expression of PI. […] The experiments were performed as described before. To avoid the unwanted effects of DMSO, the concentrations of the compounds were never higher than 100 μM.

HCT-116 = assay: MTS antiproliferative assay HCT116; assay type: cell-based; conditions: Homo sapiens, 72 h of incubation
BJ = assay: MTS assay on non-malignant BJ; assay type: cell-based; conditions: noncancerous human cell line
K562 cell line = assay: Annexin V-FITC/PI flow cytometry apoptosis assay K562; assay type: cell-based, human; conditions: 24 h
Procedure: as §1

## COc1ccc2c(c1)CC/C(=C\c1cccnc1Oc1ccc(Cl)cc1)C2=O [Compound 22, (E)-2-{[2-(4-Chlorophenoxy)pyridin-3-yl]methylene}-3,4-dihydro-6-methoxynaphthalen-1(2H)-one]
MRC-5
  IC50: > 50 µM
[1]; SI = CC50/EC50
  SIV/Tc selectivity index on T. cruzi/VERO: 20
  selectivity index T. cruzi vs BMDM (CC50/EC50): 93
[1]; Trypanosoma cruzi, 72 h, epimastigotes
  EC50: 5.03 ± 0.49 µM
K562-TAX
  IC50: 21.4 ± 4.08 µM
K562-TAX; Homo sapiens, K562-Tax, 72 h
  IC50: > 21.4 µM
CCRF-CEM
  IC50: 5.23 ± 0.3 µM
CEM-DNR
  IC50: 22.5 ± 4.77 µM
U2OS
  IC50: 8.1 ± 1.71 µM
A549
  IC50: 9.74 ± 1.28 µM
A549; Homo sapiens, A549, 72 h
  IC50: 9.64 to 9.74 µM
HCT116p53−/−
  IC50: 33.9 ± 5.63 µM
A549 cell line; A549, 10 µM
  AV+/IP+ (late apoptosis): 23.30%
  AV+/IP- (early apoptosis): 13.80%
  AV-/IP+ (necrosis): 8.44%
A549 cell line; A549, 25 µM
  AV+/IP+ (late apoptosis): 78.30%
  AV+/IP- (early apoptosis): 9.36%
  AV-/IP+ (necrosis): 9.32%
HCT-116
  IC50: 13 ± 3.61 µM
BJ
  IC50: > 50 µM
K562 cell line; K562, 5 µM
  AV+/IP+ (late apoptosis): 1.85%
  AV+/IP- (early apoptosis): 20.90%
  AV-/IP+ (necrosis): 0.44%
K562 cell line; K562, 10 µM
  AV+/IP+ (late apoptosis): 77.70%
  AV+/IP- (early apoptosis): 21.80%
  AV-/IP+ (necrosis): 0.29%
  annexin V-FITC expression: higher than 50%
